In US6406859B1 (Synaptic Pharmaceutical Corporation, priority 1992, dated 2002):
Where two headings read alike, the source gives them in different places.

How the values were obtained:
[1] = target: T1, 5-HT1F receptor (Homo sapiens, UniProt P30939); experiment: [3H]5-HT displacement binding to clonal 5-HT1F cell membranes (transfected Ltk- cells); set-up: The entire coding region of clone hl16a was cloned into the eukaryotic expression vector pcEXV-3; expressed in transfected cells; conditions: for affinity for 5-HT1F receptor in words: displacement of [3H]5-HT specific binding
T1 sequence (P30939 1-366): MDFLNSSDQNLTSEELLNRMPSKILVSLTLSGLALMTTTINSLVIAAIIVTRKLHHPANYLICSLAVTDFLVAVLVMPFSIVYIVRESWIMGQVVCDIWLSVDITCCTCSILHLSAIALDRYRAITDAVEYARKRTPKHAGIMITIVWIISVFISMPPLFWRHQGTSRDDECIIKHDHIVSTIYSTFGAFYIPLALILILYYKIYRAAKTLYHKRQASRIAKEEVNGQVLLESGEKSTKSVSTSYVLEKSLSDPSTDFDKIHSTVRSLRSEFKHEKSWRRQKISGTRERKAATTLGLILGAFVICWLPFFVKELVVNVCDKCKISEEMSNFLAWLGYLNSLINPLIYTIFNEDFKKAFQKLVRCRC
Description: Stable cell lines were obtained by cotransfection with the plasmid pcEXV-3 (containing the 5-HT1F receptor gene) and the plasmid pGCcos3neo (containing the aminoglycoside transferase gene) into Ltk^− cells or NIH3T3 cells using calcium phosphate (reagents obtained from Specialty Media, Lavellette, N.J.). The cells were grown in a controlled environment (37° C. 5% CO2) an monolayers in Dulbecco's modified Eagle medium (Gibco, Grand Island, N.Y.) containing 25 mM glucose and supplemented with 10% bovine calf serum, 100 U/ml penicillin G and 100 μg/ml streptomycin sulfate.
(§1) Membrane Preparation: Membranes were prepared from transfected Ltk^− cells which were grown to 100% confluency. The cells were washed twice with phosphate-buffered saline, scraped from the culture dishes into 5 ml of ice-cold phosphate-buffered saline, and centrifuged at 200×g for 5 min at 4°. The pellet was resuspended in 2.5 ml of ice-cold Tris buffer (20 mM Tris-HCl, pH 7.4 at 23°, 5 mM EDTA) and homogenized by a Wheaton tissue grinder. The lysate was subsequently centrifuged at 200×g for 5 min at 4° to pellet large fragments which were discarded. The supernatant was collected and centrifuged at 40,000×g for 20 min at 4°. The pellet resulting from this centrifugation was washed once in ice-cold Tris wash buffer and finally resuspended in a final buffer containing 50 mM Tris-HCl and 0.5 mM EDTA, pH 7.4 at 23°. Membrane preparations were kept on ice and utilized within two hours for the radioligand binding assays.
The binding profile of drugs in competition experiments was accomplished using 10-12 concentrations of compound. Incubation times were 30 min for both saturation and displacement studies based upon initial investigations which determined equilibrium binding conditions. […] Binding was initiated by the addition of 50 μl membrane homogenates (10-20 μg). […] All experiments were performed in triplicate.

[2] = target: 5-HT1E receptor (Homo sapiens, UniProt P28566); conditions: U.S. Ser. No. 803,626; cited from earlier work
[3] = target: T1, 5-HT1F receptor
Description: (§2) The antagonist Kb was estimated by method of Furchgott (32): Kb=(Dose of antagonist)/((E50 in the presence of antagonist/control E50) −1).
(§3) Transfected NIH3T3 cells (estimated Bmax from one point competition studies=486 fmol/mg of protein) were incubated in DMEM, 5 mM theophylline, 10 mM Hepes (4-[2-Hydroxyethyl]-1-piperazineethanesulfonic acid), 10 μM pargyline, for 20 minutes at 37° C., CO2. Drug dose-effect curves were then conducted by adding 6 different final concentrations of drug, followed immediately by the addition of forskolin (10 μM). Subsequently, the cells were incubated for an additional 10 minutes at 37° C., 5% CO2. The media was aspirated and the reaction terminated by the addition of 100 mM HCl. The plates were stored at 4° C. for 15 minutes and centrifuged for 5 minutes (500×g at 4° C.) to pellet cellular debris. Aliquots of the supernatant fraction were then stored at −20° C. prior to assessment of cAMP formation by radioimmunoassay (cAMP Radioimmunoassay kit, Advanced Magnetics, Cambridge, Mass.).

[4] = target: T1, 5-HT1F receptor; experiment: Coupling to PI turnover; format: cell-based; set-up: The entire coding region of clone hl16a was cloned into the eukaryotic expression vector pcEXV-3; expressed in transfected cells; conditions: dose of 10 μM
[5] = test system: human 5-HT1F receptor; experiment: Inhibition of [3H]5-HT specific binding by Gpp(NH)p (G-protein coupling); conditions: mean ± S.E.M., n=3
Description: as §1
The binding profile of drugs in competition experiments was accomplished using 10-12 concentrations of compound. Incubation times were 30 min for both saturation and displacement studies based upon initial investigations which determined equilibrium binding conditions. […] Binding was initiated by the addition of 50 μl membrane homogenates (10-20 μg). […] IC50 values were converted to K1 values using the Cheng-Prusoff equation (1973). All experiments were performed in triplicate.

[6] = target: T1, 5-HT1F receptor; experiment: cell-based
Description: as §2, §3

[7] = test system: dog saphenous vein; conditions: cited from earlier work
[8] = read-out: Ki (nM) for the inhibition of [3H]5-HT specific binding
[9] = read-out: Ki (nM) for the inhibition of [3H]5-HT specific binding, 4.5-5.5 nM [3H]5-HT, 10-12 drug concentrations, Cheng-Prusoff from IC50, mean ± S.E.M. of 2-4 determinations

5-HT1E receptor, sequence (P28566 whole entry): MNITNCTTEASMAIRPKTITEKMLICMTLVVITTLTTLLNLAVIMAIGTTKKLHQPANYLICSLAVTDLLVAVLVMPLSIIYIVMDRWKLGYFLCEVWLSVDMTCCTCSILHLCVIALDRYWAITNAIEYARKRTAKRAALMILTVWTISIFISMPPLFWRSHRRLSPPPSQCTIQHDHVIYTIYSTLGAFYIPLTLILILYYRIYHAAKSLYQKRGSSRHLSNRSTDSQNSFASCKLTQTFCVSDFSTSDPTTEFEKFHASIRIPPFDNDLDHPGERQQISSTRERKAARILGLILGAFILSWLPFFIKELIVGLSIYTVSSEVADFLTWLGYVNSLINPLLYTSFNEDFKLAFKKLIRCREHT

SMILES	Ki [1] [nM]	affinity for 5-HT1F receptor in words [1]	other results
CC(C)NCC(O)COc1cccc2[nH]ccc12 (stereo not shown) [Pindolol]	> 10000	very poor affinity	
COC(=O)[C@@H]1[C@H]2C[C@H]3c4[nH]c5ccccc5c4CCN3C[C@@H]2CC[C@@H]1O [Yohimbine]		fair affinity	Ki [1, 8]: 92 ± 11 nM
CN1C[C@H](C(=O)N[C@]2(C)O[C@@]3(O)[C@@H]4CCCN4C(=O)[C@H](Cc4ccccc4)N3C2=O)C[C@@H]2c3cccc4[nH]cc(c34)C[C@H]21 [Dihydroergotamine]	276 ± 49		
CN1C[C@H](C(=O)N[C@]2(C)O[C@@]3(O)[C@@H]4CCCN4C(=O)[C@H](Cc4ccccc4)N3C2=O)C=C2c3cccc4[nH]cc(c34)C[C@H]21 [Ergotamine]			Ki [1, 9]: 171 ± 28 nM
NCCc1c[nH]c2ccc(C(N)=O)cc12 [5-CT, 5-carboxyamidotryptamine]		low affinity	affinity for 5-HT1E receptor in words [2]: low affinity; affinity for 5-HT1F receptor in words ([1]; listed as 5-carboxyamidotryptamine): significantly decreases the affinity; Ki [1, 8]: 717 ± 71 nM
COc1ccc2[nH]cc(CCNC(C)=O)c2c1 [Melatonin]	> 10000		
COc1cc(N)c(Cl)cc1C(=O)NC1CN2CCC1CC2 (stereo not shown) [Zacopride]	> 10000	very poor affinity	
c1ccc2c(N3CCNCC3)cccc2c1 [1-Napthylpiperazine]			EC50 ([3]; read-out: EC50 for decrease in forskolin-stimulated cAMP production): 4.5 ± 0.2 nM; Ki ([1]; unit inferred, read-out: K1): 54 nM
COc1ccc2[nH]cc(CCN)c2c1 [5-MT, 5-methoxytryptamine]	1120	significantly decreases the affinity	
O=C(c1ccc(F)cc1)C1CCN(CCn2c(=O)[nH]c3ccccc3c2=O)CC1 [Ketanserin]	> 10000	very poor affinity	
COc1ccc2c3c([nH]c2c1)C(C)=NCC3 [Harmaline]	> 10000		
COc1cc(CC(C)N)c(OC)cc1I (stereo not shown) [DOI]		very poor affinity	Ki [1, 8]: 1740 nM
NCCc1c[nH]c2ccc(F)cc12 [5-Fluorotryptamine]	1810		
Cc1nc2sccn2c(=O)c1CCN1CCC(=C(c2ccc(F)cc2)c2ccc(F)cc2)CC1 [Ritanserin]	3520		
NCCc1c[nH]c2ccc(O)cc12 [5-HT, 5-hydroxytryptamine]		highest affinity	maximum inhibition of cAMP production ([3]; forskolin 10 μM): 67±5.4%; coupling to PI turnover [4]: no evidence for coupling of this receptor to PI turnover was detected
FC(F)(F)c1cccc(N2CCNCC2)c1 [TFMPP]			Ki [1, 9]: 1000 nM
CC(C)NCC(O)COc1cccc2ccccc12 (stereo not shown) [Propanolol]	8710		
c1ccc2nc(N3CCNCC3)ccc2c1 [Quipanzine]			Ki [1, 8]: 4670 nM
NCCc1c[nH]c2ccccc12 [Tryptamine]		significantly decreases the affinity	Ki [1, 8]: 2410 nM

SMILES	Ki [1] [nM]	affinity for 5-HT1F receptor in words [1]	other results
CC[C@@H](CO)NC(=O)[C@@H]1C=C2c3cccc4[nH]cc(c34)C[C@H]2N(C)C1 [Methylergonovine]		high affinity	Ki [1, 9]: 31 ± 11 nM
Cc1[nH]c2ccc(O)cc2c1CCN [2-Methyl-5-HT]			Ki [1, 9]: 413 ± 5.6 nM
CC(N)Cc1c[nH]c2ccc(O)cc12 (stereo not drawn) [α-Methyl-5-HT]	184 ± 35		
COc1ccc2[nH]cc(CCN(C)C)c2c1 [5-Methoxy-N,N-DMT, 5-methoxy-N,N-dimethyltryptamine]	37.5 ± 1.5	affinity much higher than the other 5-substituted tryptamine derivatives	
O=C(CCCN1CCC2(CC1)C(=O)NCN2c1ccccc1)c1ccc(F)cc1 [Spiperone]	> 10000	very poor affinity	
Nc1nc2c(ncn2[C@@H]2O[C@H](COP(=O)(O)OP(=O)(O)NP(=O)(O)O)[C@@H](O)[C@H]2O)c(=O)[nH]1 [Gpp(NH)p]			Imax of inhibition of [3H]5-HT specific binding [5]: 55.6±3.2%
C[C@@H](CO)NC(=O)[C@@H]1C=C2c3cccc4[nH]cc(c34)C[C@H]2N(C)C1 [Ergonovine]	31 ± 1.5		
CC[C@@H](CO)NC(=O)[C@@H]1C=C2c3cccc4c3c(cn4C)C[C@H]2N(C)C1 [Methysergide]		high affinity	Ki [1, 8]: 34 ± 4.9 nM
NCCc1c[nH]c2ccc(OCc3ccccc3)cc12 [5-Benzoxytryptamine]	1490		
CSc1ccc2c(c1)C(N1CCN(C)CC1)Cc1ccccc1S2 (stereo not shown) [Methiothepin]			blockade of functional 5-HT response ([3]; 5-HT 1 μM, antagonist 10 μM): completely blocked; nature of antagonism ([3]; FIG. 3, 5-HT curves with and without antagonist): surmountable; direct effect of compound on cAMP response ([3]; compound alone): No direct effect; Kd ([3]; read-out: apparent KD from dose shift of 5-HT concentration-effect curve, antagonist, method of Furchgott (FIG. 3)): 438 ± 14 nM; Ki [1, 9]: 652 ± 41 nM
CCCN(CCC)CCc1c[nH]c2ccc(C(N)=O)cc12 [DP-5-CT]			Ki [1, 8]: 1610 nM
CN1C[C@@H](NS(=O)(=O)N(C)C)C[C@@H]2c3cccc4c3c(cn4C)C[C@H]21 [Mesulergine]	> 10000		
Clc1cccc(N2CCNCC2)c1 [mCPP]			Ki [1, 8]: 2020 nM
CN1CCc2cc(Cl)c(O)cc2[C@@H](c2ccccc2)C1 [SCH 23390]	1490		
COC(=O)[C@H]1[C@H]2C[C@H]3c4[nH]c5ccccc5c4CCN3C[C@H]2CC[C@@H]1O [rauwolscine]		fair affinity	
CN1C[C@H](CO)C=C2c3cccc4[nH]cc(c34)C[C@H]21 [lysergol]			EC50 [6]: 8.8 ± 4.3 nM
CCCN(CCC)C1CCc2cccc(O)c2C1 (stereo not shown) [8-OH-DPAT]		very poor affinity	Ki [1, 8]: 1770 nM
CN1C[C@H](CNC(=O)OCc2ccccc2)C[C@@H]2c3cccc4c3c(cn4C)C[C@H]21 [Metergoline]			block of the effects of sumatriptan [7]: does not block the effects of sumatriptan; Ki [1, 9]: 341 ± 71 nM
COc1ccccc1N1CCN(CCCCN2C(=O)c3ccccc3C2=O)CC1 [NAN 190]			Ki [1, 9]: 203 ± 13 nM
